Reference: US12383710B2 (Urotronic, Inc., priority 2019, dated 2025)

How the values were obtained:
[1] = stability under ethylene oxide sterilization, heating, and aging with paclitaxel; conditions: reacted with paclitaxel
[2] = BPH Preclinical Study 4: tissue and plasma PK, histology

SMILES | stability under ethylene oxide sterilization, heating, and aging process [1] | prostate tissue drug concentration, maximum dose arm vs standard dose ([2]; 28 days) | prostatic urethra tissue drug concentration, maximum dose arm vs standard dose ([2]; 28 days) | prostate tissue drug concentration, maximum dose arm vs standard dose ([2]; 70 days) | prostatic urethra tissue drug concentration, maximum dose arm vs standard dose ([2]; 70 days) | clinical abnormalities ([2]; all animals, duration of the study) | increase of urethral luminal diameter as a result of commissurotomy ([2]; did not change between 7 days and 70 days) | histology of the prostate ([2]; maximum dose animals, 28 days, slower healing relative to standard dose and control) | abnormalities or complications ([2]; maximum dose treatment arm, 19.6 mg of paclitaxel) | plasma paclitaxel concentration ([2]; maximum dose, 12 hour and later) | nonurethral close proximity tissue sample concentrations ([2]; most samples, 28 days and beyond) | plasma paclitaxel concentration ([2]; standard dose, all time-points (1, 3, 7, 12 hours, 1, 3, 7, 14, 28 days))
O=C(O)c1ccccc1 [benzoic acid] | not stable |  |  |  |  |  |  |  |  |  |  | 
CC(=O)O[C@H]1C(=O)[C@@]2(C)[C@H]([C@H](OC(=O)c3ccccc3)[C@]3(O)C[C@H](OC(=O)[C@H](O)[C@@H](NC(=O)c4ccccc4)c4ccccc4)C(C)=C1C3(C)C)[C@]1(OC(C)=O)CO[C@@H]1C[C@@H]2O [paclitaxel] |  | 4.5 times higher | 11 times higher | 23 times higher | 23 times higher | No significant clinical abnormalities | approximately 50% | ongoing healing | no abnormalities or complications | BLOQ | at or below the limit of quantification | BLOQ
